From ChEMBL document CHEMBL6127107, “Oleanolic acid derivatives against drug-resistant bacteria and fungi by multi-targets to avoid drug resistance” (Eur J Med Chem, 2024)
In brackets after ≈: the same amount, converted by molar mass. Activity calls are given as the source filed them. The calls are words filed in the database; no cut-off is given here.

Key:
Staphylococcus aureus [1] = assay: Antibiofilm activity against methicillin-resistant Staphylococcus aureus assessed as inhibition of biofilm formation at 2 times of MIC by crystal violet staining based analysis relative to control; type: functional
Staphylococcus aureus [2] = assay: Synergistic antibacterial activity against methicillin-resistant Staphylococcus aureus assessed as fractional inhibitory concentration index in presence of ampicillin; type: functional
Staphylococcus aureus [3] = assay: Antimicrobial activity against methicillin-resistant Staphylococcus aureus 003; type: functional
Candida albicans = assay: Antimicrobial activity against fluconazole-resistant Candida albicans; type: functional
[4] = Hemolytic activity against Mianyang red blood cells (unknown origin); type: toxicity, cell-based, RBC
Cell membrane [5] = assay: Disruption of cell membrane integrity in methicillin-resistant Staphylococcus aureus assessed as nucleic acid leakage by absorbance based analysis; type: subcellular
Staphylococcus aureus [6] = assay: Synergistic antibacterial activity against methicillin-resistant Staphylococcus aureus assessed as fractional inhibitory concentration index in presence of streptomycin; type: functional
Escherichia coli = assay: Antimicrobial activity against Escherichia coli; type: functional
DNA [7] = assay: Binding affinity to methicillin-resistant Staphylococcus aureus DNA assessed as inhibition of DNA migration at 75 microg/ml by electrophoretic analysis; type: nucleic-acid assay; details: dose 75.0 µg/ml
Enterococcus faecalis = assay: Antimicrobial activity against vancomycin resistant Enterococcus faecalis ATCC 51299; type: functional
Staphylococcus aureus [8] = assay: Synergistic antibacterial activity against methicillin-resistant Staphylococcus aureus assessed as fractional inhibitory concentration index in presence of fluconazole; type: functional
Cell membrane [9] = assay: Disruption of cell membrane integrity in methicillin-resistant Staphylococcus aureus assessed as cell rupture at 2 to 4 times of MIC by scanning electron microscopic analysis; type: subcellular
[10] = Selectivity index, ratio of HC50 for hemolytic activity against Mianyang red blood cells (unknown origin) to MIC for antimicrobial activity against methicillin resistant Staphylococcus aureus 003; type: toxicity, cell-based, RBC; details: read-out: Selectivity Index
Cell membrane [11] = assay: Disruption of cell membrane integrity in methicillin-resistant Staphylococcus aureus assessed as cell deformation at 2 to 4 times of MIC by scanning electron microscopic analysis; type: subcellular
Staphylococcus aureus [12] = assay: Antimicrobial activity against Staphylococcus aureus 31; type: functional
Staphylococcus aureus [13] = assay: Antibacterial activity against methicillin-resistant Staphylococcus aureus in presence of DNA; type: functional, organism-based
Staphylococcus aureus [14] = assay: Antibiofilm activity against methicillin-resistant Staphylococcus aureus assessed as decrease in biofilm density at 1 to 8 times of MIC incubated for 24 hrs by fluorescence microscopic analysis; type: functional, organism-based
Cell membrane [15] = assay: Disruption of cell membrane integrity in Candida albicans; type: subcellular
DNA [16] = assay: Binding affinity to methicillin-resistant Staphylococcus aureus DNA assessed as effect on helical structure by measuring change in positive and negative peaks at 10 to 40 microg/ml by CD spectra; type: nucleic-acid assay; details: dose 10-40 µg/ml
Staphylococcus aureus [17] = assay: Synergistic antibacterial activity against methicillin-resistant Staphylococcus aureus assessed as fractional inhibitory concentration index in presence of ceftriaxone; type: functional
Staphylococcus aureus [18] = assay: Synergistic antibacterial activity against methicillin-resistant Staphylococcus aureus assessed as fractional inhibitory concentration index in presence of vancomycin; type: functional
Staphylococcus aureus [19] = assay: Synergistic antibacterial activity against methicillin-resistant Staphylococcus aureus assessed as fractional inhibitory concentration index in presence of chlorpromazine; type: functional
Staphylococcus aureus [20] = assay: Antimicrobial activity against methicillin-resistant Staphylococcus aureus in presence of phosphatidylethanolamine; type: functional, organism-based
Staphylococcus aureus [21] = assay: Synergistic antibacterial activity against methicillin-resistant Staphylococcus aureus assessed as fractional inhibitory concentration index in presence of cefoxitin; type: functional
Staphylococcus aureus [22] = assay: Synergistic antibacterial activity against methicillin-resistant Staphylococcus aureus assessed as fractional inhibitory concentration index in presence of azithromycin; type: functional
DNA [23] = assay: Binding affinity to methicillin-resistant Staphylococcus aureus DNA assessed as change in DNA conformation by UV absorption based analysis; type: nucleic-acid assay
HEK-293T = assay: Cytotoxicity against HEK293T cells at 64 microg/ml by MTT assay; type: toxicity, cell-based; details: human, dose 64 µg/ml
Mitochondrial membrane = assay: Induction of mitochondrial membrane depolarization in methicillin-resistant Staphylococcus aureus assessed as increase in fluorescence intensity at 1 to 8 times of MIC by DiSC3(5) staining based analysis; type: cell membranes
Cell membrane [24] = assay: Disruption of cell membrane integrity in methicillin-resistant Staphylococcus aureus assessed as increase in PI fluorescence at 2 to 8 times of MIC by PI staining based fluorescence analysis; type: subcellular
Staphylococcus aureus [25] = assay: Antibiofilm activity against methicillin-resistant Staphylococcus aureus assessed as decrease in biofilm biomass at 1 to 8 times of MIC by crystal violet staining based analysis; type: functional, organism-based
Staphylococcus aureus [26] = assay: Antibiofilm activity against methicillin-resistant Staphylococcus aureus assessed as reduction in number of live cells at 8 times of MIC (reference value: 7.79 log10CFU/ml); type: functional
Staphylococcus aureus [27] = assay: Antimicrobial activity against methicillin-resistant Staphylococcus aureus in presence of cardiolipin; type: functional, organism-based
Staphylococcus aureus [28] = assay: Antibacterial activity against methicillin-resistant Staphylococcus aureus assessed as inhibition of bacterial growth at 1 times of MIC; type: functional, organism-based
DNA [29] = assay: Binding affinity to methicillin-resistant Staphylococcus aureus DNA minor groove assessed as decrease in fluorescence by DAPI staining based analysis; type: nucleic-acid assay
Staphylococcus aureus [30] = assay: Antimicrobial activity against methicillin-resistant Staphylococcus aureus in presence of peptidoglycan; type: functional, organism-based
Staphylococcus aureus [31] = assay: Synergistic antibacterial activity against methicillin-resistant Staphylococcus aureus assessed as fractional inhibitory concentration index in presence of chloramphenicol; type: functional
Staphylococcus aureus [32] = assay: Antimicrobial activity against Staphylococcus aureus 10; type: functional
DNA [33] = assay: Binding affinity to […] methicillin-resistant Staphylococcus aureus DNA assessed as inhibition of DNA migration by electrophoretic analysis; type: nucleic-acid assay
Staphylococcus aureus [34] = assay: Selectivity ratio of MBEC for methicillin-resistant Staphylococcus aureus to MIC for methicillin resistant Staphylococcus aureus; type: functional
Staphylococcus aureus [35] = assay: Bactericidal activity against methicillin-resistant Staphylococcus aureus assessed as eradication of bacterial growth at 4 times of MIC measured within 6 hrs relative to control; type: functional
Staphylococcus aureus [36] = assay: Antimicrobial activity against methicillin-resistant Staphylococcus aureus 011; type: functional
Staphylococcus aureus [37] = assay: Bactericidal activity against methicillin-resistant Staphylococcus aureus; type: functional, organism-based
Pseudomonas aeruginosa = assay: Antimicrobial activity against Pseudomonas aeruginosa; type: functional
Staphylococcus aureus [38] = assay: Antibacterial activity against methicillin-resistant Staphylococcus aureus at sub-MIC measured after 20 days of continuous passage; type: functional, organism-based; details: time 20.0 day
DNA [39] = assay: Binding affinity to methicillin-resistant Staphylococcus aureus DNA assessed as decrease in fluorescence by PI staining based analysis; type: nucleic-acid assay
Cell membrane [40] = assay: Disruption of cell membrane integrity in methicillin-resistant Staphylococcus aureus assessed as increase in ROS level at 2 to 8 times of MIC incubated for 1 hrs; type: subcellular
Staphylococcus aureus [41] = assay: Synergistic antibacterial activity against methicillin-resistant Staphylococcus aureus assessed as fractional inhibitory concentration index in presence of lincomycin hydrochloride; type: functional
Staphylococcus aureus [42] = assay: Antimicrobial activity against Staphylococcus aureus 29; type: functional
Staphylococcus aureus [43] = assay: Antibacterial activity against methicillin-resistant Staphylococcus aureus infected in cyclophosphamide-injected Kunming mouse model of skin wound infection assessed as reduction in bacterial load in skin at 4 mg/kg measured after 7 days; type: functional; details: time 7 day
Staphylococcus aureus [44] = assay: Antibacterial activity against methicillin-resistant Staphylococcus aureus infected in cyclophosphamide-injected Kunming mouse model of skin wound infection assessed as wound repair by measuring reduction in wound area at 4 mg/kg measured for 7 days by photographic analysis; type: functional, organism-based; details: time 7.0 day
Staphylococcus aureus [45] = assay: Drug resistance, ratio of MIC for methicillin-resistant Staphylococcus aureus measured after 20 days of continuous passage to MIC for methicillin-resistant Staphylococcus aureus measured after first exposure; type: functional

Compound: CC1(C)CC[C@]2(C(=O)O)CC[C@]3(C)C(=CC[C@@H]4[C@@]5(C)CC[C@H](OCC(O)CCCNC(=N)N)C(C)(C)[C@@H]5CC[C@]43C)[C@@H]2C1 (stereo partly drawn)
- inhibition (INH) (Staphylococcus aureus [1]): >80%
- fractional inhibitory concentration index (FICI) (Staphylococcus aureus [2]): <=0.5
- MIC (Staphylococcus aureus [3]): > 2 µg/mL
- MIC (Candida albicans): 2 µg/mL (≈ 3.33 µM)
- HC50 [4]: 779 µg/mL
- Activity (Cell membrane [5]): Active
- fractional inhibitory concentration index (FICI) (Staphylococcus aureus [6]): 0.25
- MIC (Escherichia coli): > 64 µg/mL
- Activity (DNA [7]): Active
- MIC (Enterococcus faecalis): 2 µg/mL (≈ 3.33 µM)
- fractional inhibitory concentration index (FICI) (Staphylococcus aureus [8]): <=0.5
- Activity (Cell membrane [9]): Active
- selectivity ratio [10]: < 390
- Activity (Cell membrane [11]): Active
- MIC (Staphylococcus aureus [12]): 2 µg/mL (≈ 3.33 µM)
- Activity (Staphylococcus aureus [13]): inactive
- Activity (Staphylococcus aureus [14]): Dose-Dependent Effect
- Activity (Cell membrane [15]): Active
- Activity (DNA [16]): Active
- fractional inhibitory concentration index (FICI) (Staphylococcus aureus [17]): <=0.5
- fractional inhibitory concentration index (FICI) (Staphylococcus aureus [18]): <=0.5
- fractional inhibitory concentration index (FICI) (Staphylococcus aureus [19]): <=0.5
- Activity (Staphylococcus aureus [20]): inactive
- fractional inhibitory concentration index (FICI) (Staphylococcus aureus [21]): <=0.5
- fractional inhibitory concentration index (FICI) (Staphylococcus aureus [22]): <=0.5
- Activity (DNA [23]): Active
- Activity (HEK-293T): Non-Toxic
- Activity (Mitochondrial membrane): Dose-Dependent Effect
- Activity (Cell membrane [24]): Active
- Activity (Staphylococcus aureus [25]): Active
- Activity (Staphylococcus aureus [26]): 2.7 log10CFU/ml
- Activity (Staphylococcus aureus [27]): inactive
- Activity (Staphylococcus aureus [28]): Active
- Activity (DNA [29]): inactive
- Activity (Staphylococcus aureus [30]): Active
- fractional inhibitory concentration index (FICI) (Staphylococcus aureus [31]): <=0.5
- MIC (Staphylococcus aureus [32]): 2 µg/mL (≈ 3.33 µM)
- Activity (DNA [33]): Active
- selectivity ratio (Staphylococcus aureus [34]): 16
- Activity (Staphylococcus aureus [35]): 99.99%
- MIC (Staphylococcus aureus [36]): 2 µg/mL (≈ 3.33 µM)
- Activity (Staphylococcus aureus [37]): Active
- MIC (Pseudomonas aeruginosa): > 64 µg/mL
- Activity (Staphylococcus aureus [38]): Active
- Activity (DNA [39]): Dose-Dependent Effect
- Activity (Cell membrane [40]): Active
- fractional inhibitory concentration index (FICI) (Staphylococcus aureus [41]): <=0.5
- MIC (Staphylococcus aureus [42]): 4 µg/mL (≈ 6.67 µM)

Compound: CN[C@H](CC(C)C)C(=O)N[C@H]1C(=O)N[C@@H](CC(N)=O)C(=O)N[C@H]2C(=O)N[C@H]3C(=O)N[C@H](C(=O)N[C@H](C(=O)O)c4cc(O)cc(O)c4-c4cc3ccc4O)[C@H](O)c3ccc(c(Cl)c3)Oc3cc2cc(c3O[C@@H]2O[C@H](CO)[C@@H](O)[C@H](O)[C@H]2O[C@H]2C[C@](C)(N)[C@H](O)[C@H](C)O2)Oc2ccc(cc2Cl)[C@H]1O [VANCOMYCIN]
- HC50 [4]: > 256 µg/mL
- MIC (Enterococcus faecalis): 2 µg/mL (≈ 1.38 µM)
- Activity (Staphylococcus aureus [43]): 0.9 log10CFU/mg
- Activity (Staphylococcus aureus [44]): Active

Compound: CCn1cc(C(=O)O)c(=O)c2cc(F)c(N3CCNCC3)cc21 [NORFLOXACIN]
- Ratio (Staphylococcus aureus [45]): 32
